This note sets out measurements from BindingDB's records for PubMed 40188441 (Shanghai Jiao Tong University).

Bounds are passed on as bounds.

This test is described as follows: Inhibition of human STING in human THP-1 Dual cells assessed as secreted luciferase reporter of interferon stimulated gene (ISG) measured after 24 hrs incubation by QUANTI-Luc detection assay. (In general: Reporter assays use an easily measured gene product as a stand-in for the process of interest.)
For the molecule `O=C(Nc1c[nH]c2ccccc12)N1CCc2[nH]c3c(Cl)c(Cl)ccc3c2C1`, the IC50 is 2120 nM.
For the molecule `O=C(Nc1c[nH]c2ccccc12)N1CCc2[nH]c3c(Cl)c(Cl)cc(Br)c3c2C1`, the IC50 was found to be 2050 nM.
Turning to `Cn1ccc(-c2cc(Cl)c(Cl)c3[nH]c4c(c23)CN(C(=O)Nc2c[nH]c3ccccc23)CC4)n1`, the IC50 was > 10000 nM.
With `Cc1ccc2c(NC(=O)N3CCc4[nH]c5c(Cl)c(Cl)ccc5c4C3)c[nH]c2c1`, the IC50 was > 10000 nM.
In the case of `COc1ccc2c(NC(=O)N3CCc4[nH]c5c(Cl)c(Cl)ccc5c4C3)c[nH]c2c1` it was > 10000 nM; in that of `O=C(Nc1c[nH]c2cc(F)ccc12)N1CCc2[nH]c3c(Cl)c(Cl)ccc3c2C1`, 3180 nM; in that of `O=C(Nc1c[nH]c2cc(Cl)ccc12)N1CCc2[nH]c3c(Cl)c(Cl)ccc3c2C1`, 3310 nM.
In the case of `COc1ccc2[nH]cc(NC(=O)N3CCc4[nH]c5c(Cl)c(Cl)ccc5c4C3)c2c1` it was 2380 nM; in that of `O=C(Nc1c[nH]c2ccc(F)cc12)N1CCc2[nH]c3c(Cl)c(Cl)ccc3c2C1`, 2400 nM; in that of `O=C(Nc1c[nH]c2ccc(Br)cc12)N1CCc2[nH]c3c(Cl)c(Cl)ccc3c2C1`, 791 nM.
In the case of `O=C(Nc1c[nH]c2ccc(F)cc12)N1CCc2oc3c(Cl)c(Cl)ccc3c2C1` it was 382 nM; in that of `O=C(Nc1c[nH]c2ccc(Br)cc12)N1CCc2oc3c(Cl)c(Cl)ccc3c2C1`, 353 nM.
Take `O=C(Nc1ccc2c(c1)OC(F)(F)O2)Nc1c[nH]c2ccccc12`: the IC50 was found to be 18 nM.
In the case of `O=C(Nc1cccc2c1OC(F)(F)O2)Nc1c[nH]c2ccccc12`, the IC50 worked out at 1830 nM.
As for `O=C(Nc1ccc2c(c1)OC(F)(F)C(F)(F)O2)Nc1c[nH]c2ccc(F)cc12`, the IC50 is 110 nM.
The same measure for `O=C(Nc1ccc2c(c1)OCO2)Nc1c[nH]c2ccc(F)cc12`: 3470 nM; for `O=C(Nc1ccc2c(c1)OCCO2)Nc1c[nH]c2ccc(F)cc12`: 1350 nM.
In the case of `O=C(Nc1ccc2c(c1)COB2O)Nc1c[nH]c2ccc(F)cc12` it was > 10000 nM; in that of `O=C(Nc1ccc2c(c1)CCN2)Nc1c[nH]c2ccc(F)cc12`, > 10000 nM; in that of `O=C(Nc1ccc2c(c1)NCC2)Nc1c[nH]c2ccc(F)cc12`, 1220 nM.
For the molecule `CN1CCc2cc(NC(=O)Nc3c[nH]c4ccc(F)cc34)ccc21`, the IC50 amounted to 1180 nM.
As to `O=C(Nc1ccc2c(c1)OC(F)(F)O2)Nc1c[nH]c2ccc(Br)cc12`, the IC50 came out at 71 nM.
The same measure for `O=C(Nc1ccc2c(c1)OC(F)(F)O2)Nc1c[nH]c2ccc(Cl)cc12`: 66 nM; for `C=CC(=O)Nc1ccc2[nH]cc(NC(=O)Nc3ccc4c(c3)OC(F)(F)O4)c2c1`: > 10000 nM; for `CCOP(=O)(Cc1ccc2[nH]cc(NC(=O)Nc3ccc4c(c3)OC(F)(F)O4)c2c1)OCC`: > 10000 nM.
Turning to `C#Cc1ccc2[nH]cc(NC(=O)Nc3ccc4c(c3)OC(F)(F)O4)c2c1`, the IC50 was found to be 119 nM.
Consider `O=C(Nc1ccc2c(c1)OC(F)(F)O2)Nc1c[nH]c2ccc(C#CC(F)(F)F)cc12`, for which the IC50 was > 10000 nM.
As to `O=C(Nc1ccc2c(c1)OC(F)(F)O2)Nc1c[nH]c2ccc(C#CC3CC3)cc12`, the IC50 is 258 nM.
In the case of `CC(=O)OCC#Cc1ccc2[nH]cc(NC(=O)Nc3ccc4c(c3)OC(F)(F)O4)c2c1`, the IC50 amounted to 489 nM.
The same measure for `O=C(Nc1ccc2c(c1)OC(F)(F)O2)Nc1c[nH]c2ccc(C#CCO)cc12`: 2190 nM.
As to `Cn1cc(C#Cc2ccc3[nH]cc(NC(=O)Nc4ccc5c(c4)OC(F)(F)O5)c3c2)cn1`, the IC50 came to 264 nM.
As for `COC(=O)/C=C/c1ccc2[nH]cc(NC(=O)Nc3ccc4c(c3)OC(F)(F)O4)c2c1`, the IC50 amounted to 3650 nM.
Regarding `N#C/C=C/c1ccc2[nH]cc(NC(=O)Nc3ccc4c(c3)OC(F)(F)O4)c2c1`, the IC50 was > 10000 nM.
The same measure for `N#CC/C=C/c1ccc2[nH]cc(NC(=O)Nc3ccc4c(c3)OC(F)(F)O4)c2c1`: 116 nM; for `COCCOCCn1cc(-c2ccc3[nH]cc(NC(=O)Nc4ccc5c(c4)OC(F)(F)O5)c3c2)nn1`: 2490 nM.
With `O=C(Nc1ccc2c(c1)OC(F)(F)O2)Nc1c[nH]c2ccc(-c3cn(CCN4CCOCC4)nn3)cc12`, the half-maximal inhibitory concentration (IC50) is > 10000 nM.
The same measure for `O=C(Nc1ccc2c(c1)OC(F)(F)O2)Nc1c[nH]c2ccc(-c3cn(CCO)nn3)cc12`: > 10000 nM.
In the case of `Fc1ccc2[nH]cc(Nc3nc4cc5c(cc4[nH]3)OC(F)(F)O5)c2c1`, the IC50 is 192 nM.
As to `Fc1ccc2[nH]cc(Nc3nc4cc(C(F)(C(F)(F)F)C(F)(F)F)ccc4[nH]3)c2c1`, the IC50 came out at 269 nM.
Take `Fc1ccc2[nH]cc(Nc3nc4cc(C5CCCC5)ccc4[nH]3)c2c1`: the IC50 is 43 nM.
The same measure for `Fc1cc2[nH]cc(Nc3nc4cc(C5CCCC5)ccc4[nH]3)c2cc1F`: 216 nM.
In the case of `Fc1cnc2[nH]cc(Nc3nc4cc(C5CCCC5)ccc4[nH]3)c2c1` it was 44 nM.

As a reminder, the IC50 is the concentration needed to halve the response being measured.
